# Source: patent US3950393A, “Aminobenzyl-amides and salts thereof” (Boehringer Ingelheim GmbH, priority 1973, dated 1976)
# Where a name gives a salt, the structure may show the parent alone. Read-outs that look alike come from different tables or passages of the source.
# Assays:
# guinea pigs = experiment: Secretolytic (expectorant) effect in anesthetized guinea pigs after oral application; assay type: in vivo; settings: 8 mgm/kg oral, within 2 hours, 6-8 animals
# Description: (§1) The expectorant activity was tested on anesthetized rabbits and guinea pigs after oral application of 8 mgm/kg of the test compound to 6-8 animals. The increase in secretion within 2 hours was calculated from the amounts of secretion before and after application of the substance [see Perry and Boyd in Pharmakol. exp. Therap. 73, 65 (1941)].
# white mice = experiment: in vivo
# Description: (§2) The acute toxicity of the test compounds was determined after a single application of 1000 or 2000 mgm/kg p.o., respectively, to 5 white mice each.
# in vivo = settings: mouse, in vivo, po
# Description: as §2
# rabbits = experiment: Secretolytic (expectorant) effect in anesthetized rabbits after oral application; assay type: in vivo; settings: 8 mgm/kg oral, within 2 hours, 6-8 animals
# Description: as §1
# ulcers = experiment: Anti-ulcerogenic activity, acetic acid stomach ulcers, method of K. Takagi et al; assay type: in vivo, female rats; settings: three weeks with food
# Description: The inhibiting effect of the test compounds on the formation of ulcers was determined according to the method of K. Takagi et al [Jap. J. Pharmac. 19, 418 (1969)]. The abdominal cavity of anesthetized female rats having a body weight from 220 to 250 gm was opened and the stomach was exposed. Then, 0.05 ml of an aqueous 5% acetic acid solution was injected between the muscularis mucosae and submucosa of the stomach. Thereafter, the abdominal cavity was closed again. The ulcers formed in the mucosa after 3 to 5 days were treated for three weeks by admixing the test compound in question with the food at dosage levels of 50 and 100 mgm/kg (6 animals/dose). The control animals were fed with the pulverized food only.
# After treatment for three weeks the animals were killed, the stomach was removed, and the size of the ulcers was determined by measurement of their length and width. The anti-ulcerogenic activity of the test compound was determined by the size of the ulcers comparing with the control values (100%): […]
# cats = experiment: Circulatory effect in cats under chloralose-urethane anesthesia after intravenous application; assay type: in vivo; settings: 2, 4 and 8 mgm/kg intravenous, 3 animals per dose
# Description: The circulatory effect in cats was determined under chloralose-urethane anesthesia after intravenous application of 2,4 and 8 mgm/kg of the test compound (3 animals per dose).
# [1] = single application, 5 white mice, read-out: Acute toxicity
Compound,Increase in secretion (guinea pigs) [%],animals died (white mice; single 1000 mgm/kg p.o.),LD50 (in vivo; [1]) [mg/kg],LD50 (in vivo) [mg/kg],Increase in secretion (rabbits) [%],reduction of the ulcers compared with control values (ulcers; peroral dosage of 50 mgm/kg) [%],reduction of the ulcers compared with control values (ulcers; peroral dosage of 100 mgm/kg) [%],Circulatory effect (cats),animals died (white mice; single 2000 mgm/kg p.o.)
2-amino-3-bromo-N-cyclohexyl-N-ethyl-3-fluoro-benzylamine hydrochloride,100,0 out of 5,–,–,–,–,–,–,–
"CN(C)Cc1cc(F)cc(Br)c1N.Cl [G, 2-amino-3-bromo-N,N-dimethyl-5-fluoro-benzylamine hydrochloride]",84,0 out of 5,> 1000,–,–,–,–,–,–
"Cc1cc(Br)cc(CN2CCCCCC2)c1N [D, N-(2-amino-5-bromo-3-methyl-benzyl)-hexamethyleneamine dihydrochloride]",–,0 out of 5,–,> 1000,72,–,–,–,–
"CCOC(=O)c1cc(Br)c(N)c(CN(CC)CC)c1.Cl [A, 2-amino-3-bromo-5-carbethoxy-N,N-diethyl-benzylamine hydrochloride]",90,–,> 2000,–,–,52,79,no change,0 out of 5
"CC(=O)c1cc(Br)c(N)c(CN(C)C)c1 [F, 5-acetyl-2-amino-3-bromo-N,N-dimethyl-benzylamine]",–,2 out of 5,~1000,–,75,–,–,–,–
"CC(C)(C)c1cc(N)c(CN2CCOCC2)cc1Br.Cl.Cl [E, N-(2-amino-5-bromo-4-tert.butyl-benzyl)-morpholine dihydrochloride]",–,0 out of 5,> 1000,–,77,–,–,–,–
"CCN(Cc1cc(C(=O)O)cc(Br)c1N)C1CCCCC1.Cl [B, 2-amino-3-bromo-5-carboxy-N-cyclohexyl-N-ethyl-benzylamine hydrochloride]",81,0 out of 5,> 1000,–,–,–,–,no change,–
